The source of these data is article PMC4658577 (Frontiers in Plant Science, 2015).

Assay type in all cases: cell-based
In assay [1] the target is T1, ANO1/CaCC (TMEM16A) (Homo sapiens, UniProt Q5XXA6).
T1 construct: ANO1 cDNA
T1 sequence (Q5XXA6 1-986): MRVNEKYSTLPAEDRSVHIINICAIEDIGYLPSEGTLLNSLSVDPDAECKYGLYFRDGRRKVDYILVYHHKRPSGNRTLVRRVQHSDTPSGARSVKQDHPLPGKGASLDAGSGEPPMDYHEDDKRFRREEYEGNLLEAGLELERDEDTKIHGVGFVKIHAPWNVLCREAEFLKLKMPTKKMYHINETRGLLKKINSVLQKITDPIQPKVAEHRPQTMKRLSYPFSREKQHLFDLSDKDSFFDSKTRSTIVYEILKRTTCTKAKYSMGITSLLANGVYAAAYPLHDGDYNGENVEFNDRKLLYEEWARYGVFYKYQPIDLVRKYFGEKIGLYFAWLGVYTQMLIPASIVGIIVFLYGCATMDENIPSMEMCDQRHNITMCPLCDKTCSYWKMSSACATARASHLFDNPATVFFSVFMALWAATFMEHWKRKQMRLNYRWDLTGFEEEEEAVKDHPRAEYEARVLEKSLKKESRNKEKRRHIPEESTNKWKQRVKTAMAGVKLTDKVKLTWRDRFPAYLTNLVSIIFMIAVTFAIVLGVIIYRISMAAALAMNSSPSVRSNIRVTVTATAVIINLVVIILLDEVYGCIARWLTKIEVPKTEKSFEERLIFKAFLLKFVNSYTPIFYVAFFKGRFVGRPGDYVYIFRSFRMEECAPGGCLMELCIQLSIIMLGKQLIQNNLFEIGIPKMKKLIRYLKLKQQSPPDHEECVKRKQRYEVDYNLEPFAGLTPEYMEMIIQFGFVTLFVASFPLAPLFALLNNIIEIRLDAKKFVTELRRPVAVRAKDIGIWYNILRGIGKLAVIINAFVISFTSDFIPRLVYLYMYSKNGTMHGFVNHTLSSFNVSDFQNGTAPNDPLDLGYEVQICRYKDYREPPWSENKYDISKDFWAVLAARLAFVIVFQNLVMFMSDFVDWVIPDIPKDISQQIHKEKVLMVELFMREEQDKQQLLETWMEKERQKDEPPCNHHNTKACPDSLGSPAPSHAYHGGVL
The assay can be described thus: Eact-induced short-circuit current in ANO1-expressing FRT cells, […].

Assay [2] has as its target T2, cystic fibrosis transmembrane conductance regulator (CFTR) (Homo sapiens, UniProt P13569).
T2 construct: human wild-type CFTR cDNA
The assay is described as follows: gradient concentrations inhibiting lignan-activated CFTR iodide influx in FRT cells.

The target of assay [3] is T1, ANO1/CaCC (TMEM16A). The assay can be described thus: Eact-induced short-circuit current in ANO1-expressing FRT cells.

T2 sequence (P13569 whole entry): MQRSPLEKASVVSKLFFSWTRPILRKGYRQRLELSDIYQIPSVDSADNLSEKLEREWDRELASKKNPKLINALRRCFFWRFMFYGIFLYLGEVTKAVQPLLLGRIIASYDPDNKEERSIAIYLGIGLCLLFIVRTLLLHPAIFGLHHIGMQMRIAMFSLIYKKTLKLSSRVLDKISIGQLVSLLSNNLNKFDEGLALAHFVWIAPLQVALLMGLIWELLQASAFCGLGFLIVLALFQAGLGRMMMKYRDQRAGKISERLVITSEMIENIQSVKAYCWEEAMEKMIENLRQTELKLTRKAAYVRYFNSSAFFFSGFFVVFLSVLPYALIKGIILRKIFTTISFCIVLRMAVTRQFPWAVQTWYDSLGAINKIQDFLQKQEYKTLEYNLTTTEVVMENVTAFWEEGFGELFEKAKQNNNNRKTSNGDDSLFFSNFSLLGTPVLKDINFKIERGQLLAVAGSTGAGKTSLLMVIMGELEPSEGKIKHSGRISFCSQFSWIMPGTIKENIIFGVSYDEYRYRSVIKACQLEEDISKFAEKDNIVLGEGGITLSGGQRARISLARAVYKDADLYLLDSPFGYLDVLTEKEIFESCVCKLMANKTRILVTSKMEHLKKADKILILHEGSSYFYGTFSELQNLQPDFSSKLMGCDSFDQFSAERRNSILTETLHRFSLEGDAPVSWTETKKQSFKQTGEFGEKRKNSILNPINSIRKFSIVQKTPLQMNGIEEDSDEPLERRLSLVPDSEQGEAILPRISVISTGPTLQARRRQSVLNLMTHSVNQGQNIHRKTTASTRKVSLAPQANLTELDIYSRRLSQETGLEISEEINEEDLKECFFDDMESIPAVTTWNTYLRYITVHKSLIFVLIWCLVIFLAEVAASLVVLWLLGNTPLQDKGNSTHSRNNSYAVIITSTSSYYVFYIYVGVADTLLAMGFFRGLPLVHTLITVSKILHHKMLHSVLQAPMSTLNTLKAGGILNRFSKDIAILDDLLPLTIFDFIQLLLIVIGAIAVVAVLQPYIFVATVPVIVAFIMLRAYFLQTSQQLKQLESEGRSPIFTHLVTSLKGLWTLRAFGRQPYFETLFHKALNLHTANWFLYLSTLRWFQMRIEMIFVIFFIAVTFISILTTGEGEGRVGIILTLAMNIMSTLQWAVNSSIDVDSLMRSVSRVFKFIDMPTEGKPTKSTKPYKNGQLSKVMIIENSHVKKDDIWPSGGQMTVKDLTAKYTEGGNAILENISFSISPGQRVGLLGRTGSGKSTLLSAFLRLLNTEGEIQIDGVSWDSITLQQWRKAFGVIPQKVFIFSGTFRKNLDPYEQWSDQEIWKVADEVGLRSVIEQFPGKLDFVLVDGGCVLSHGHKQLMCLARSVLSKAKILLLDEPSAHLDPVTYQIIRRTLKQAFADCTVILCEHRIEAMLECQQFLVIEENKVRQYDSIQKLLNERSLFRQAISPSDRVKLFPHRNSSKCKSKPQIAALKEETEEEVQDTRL

For the molecule `CCc1c(C)nc(SCC(=O)Nc2nc(-c3ccc(OC)cc3)cs2)[nH]c1=O` [16A, T16Ainh-A01], the “Eact-induced short-circuit current in ANO1-expressing FRT cells, 30 μM” value in assay [1] is “Eact-induced ANO1-mediated short-circuit current was completely abolished by the specific inhibitor of ANO1 T16Ainh-A01”. In the case of `O=C(O)c1ccc(/C=C2\SC(=S)N(c3cccc(C(F)(F)F)c3)C2=O)cc1` [compound 172, CFTRinh-172], in assay [2], the “gradient concentrations inhibiting lignan-activated CFTR iodide influx in FRT ce” value is “activation effect of these compounds could be inhibited by gradient concentrations of the known CFTR inhibitor CFTRinh-172”.

Take `COc1ccc([C@H]2OC[C@H]3[C@@H]2CO[C@@H]3c2ccc(OC)c(OC)c2)cc1OC` [eudesmin]: the midpoint of inhibition in assay [3], the IC50, lay at 200 µM.
